Positions of bridges follow the written chain, without caps; N, C: chain ends. Residues, ends and D or L forms follow the SMILES beside them.
Key:
C. neoformans [1] = experiment: Scanning and transmission electron microscopy; format: cell-based, Cryptococcus neoformans; details: 10× the MIC; 14 µM, 2 h at 37 °C
Procedure: C. neoformans were cultured in YPDA broth to mid-log phase and diluted with normal saline (0.9% sodium chloride) to 1 × 10^9 CFU/mL. The cultures were centrifuged at 3500 rpm for 5 min, and the supernatant was discarded. After three washes with normal saline, the fungal pellets were re-suspended in normal saline. […] At 2 h post-incubation, the suspensions were centrifuged at 3500 rpm for 5 min, the supernatant was aspirated, and the pellets were re-suspended/fixed in 1 mL of 2.5% glutaraldehyde. Fixation was performed overnight at 4 °C. Next, the samples were washed in normal saline and dehydrated in a graded series of ethanol (50%, 70%, 90%, and 100%). In the end, the pellets were placed on aluminum stubs, vacuum sputter-coated in gold, and the Hitachi S-3000N (Tokyo, Japan) SEM was used to examine the membrane morphology.
For transmission electron microscopy, the cells were cultured and harvested as described above. After dehydration, cells were embedded and stained for observation under transmission electron microscopy.

C. neoformans [2] = experiment: Mice systemic infection model, fungal burden; format: in vivo, C57BL/6J female mice; details: immunocompromised mice, 8 × 10^6 CFU/mouse i.p., QS18 1, 2, 4 mg/kg i.p. 12 h after infection, read 12 h post-treatment, n = 4
Procedure: (§1) Mice systemic infection and the treatment model were performed to assess the dissemination of fungi to target organs as described by with little modifications. C57BL/6J female mice 20 ± 2 g were immunocompromised through the intraperitoneal injection of 150 mg/kg cyclophosphamide for four days prior to infection. C. neoformans was then cultured in YPDA broth media to mid-log phase. […] Fungal pellets were resuspended in the same buffer, and the optical density (OD) value was adjusted to 4 × 10^7 CFU/mL. A volume of 200 µL of the fungal solution was i.p. injected into immunocompromised mice (n = 4), a total of 8 × 10^6 colony-forming units (CFUs) injected per mouse. Twelve hours post-intraperitoneal inoculation of the fungi, treatment was administered. […] Twelve hours post-treatment, the mice were sacrificed, and blood was collected through retro-orbital bleeding. Organs (lung, liver, kidney, and spleen) were also harvested and divided into two parts. One portion was weighed and placed into a grinding tube with 1 mL of normal saline and then homogenized in a tissue grinder to assess the fungal burden, while fixation of the other portion was performed for the histopathology examination. Following a 5-fold serial dilution in normal saline, 100 µL of the homogenates were seeded on YPDA plates and incubated at 37 °C for 48 h before counting colonies.

C. neoformans BNCC225501 = experiment: Time-killing kinetics assay; format: cell-based, Cryptococcus neoformans
Procedure: C. neoformans fungi grown to mid-log phase was adjusted with normal saline to 1 × 10^5 CFU/mL. […] A volume of 10 µL of the sample was taken at each time point and diluted with sterile normal saline to 100-fold. A total of 100 µL of the dilution was seeded on YPDA media agar plates in three replicates for each concentration per time point. Plates were incubated for 18–24 h at 37 °C, and the number of viable colonies was determined to assess the rate of fungi growth.

C. neoformans [3] = details: then 4 × MIC on C. neoformans 1 × 10^6 CFU/mL, absorbance 595 nm
Procedure: Incubation of the mixture was performed for 3 h at 37 °C. A volume of 100 µL of fresh yeast extract peptone dextrose agar (YPDA) broth media was added to the mixture followed by a further 16 h of incubation. Included as negative controls were samples containing heat-inactivated protease with no peptide but media only. The inhibition of fungal growth was detected by measuring absorbance at 595 nm with a Synergy H1 Micro plate Reader (Bio-Tek, Winooski, VT, USA). The assays were performed in three replicates.

[4] = tested on: TNF-α, IL-6, IL-1β, MCP-1; experiment: Plasma cytokine levels of infected mice, ELISA; format: in vivo, C57BL/6J female mice; details: QS18 1, 2, 4 mg/kg i.p., n = 4
Procedure: as §1, with “One portion was weighed and placed into a grinding tube with 1 mL of normal saline and then homogenized in a tissue grinder to assess the fungal burden, while fixation of the other portion was performed for the histopathology examination. Following a 5-fold serial dilution in normal saline, 100 µL of the homogenates were seeded on YPDA plates and incubated at 37 °C for 48 h before counting colonies.” left out
Blood collected through retro-orbital bleeding was centrifuged for 25 min at 5000 rpm to isolate plasma. Following the manufacturer’s guidelines, standard enzyme-linked immunosorbent assay (ELISA) kits were used to quantify the cytokine levels of tumor necrosis factor-α (TNF-α), interleukin-6 (IL-6), interleukin--1β (IL-1β), and monocyte chemoattractant protein-1 (MCP-1) in the plasma.

CC(C)[C@@H]1NC(=O)[C@H](CCCCN)NC(=O)[C@H](Cc2ccccc2)NC(=O)[C@@H](NC(=O)[C@@H](N)CCC(N)=O)CSSC[C@@H](C(=O)N[C@@H](CO)C(=O)N[C@@H](CCCNC(=N)N)C(=O)N[C@@H](CO)C(N)=O)NC(=O)[C@H](CCCCN)NC(=O)[C@H]([C@@H](C)O)NC(=O)[C@H](Cc2ccccc2)NC(=O)[C@@H]2CSSC[C@H](NC1=O)C(=O)N[C@@H](Cc1ccccc1)C(=O)N[C@@H](CCCNC(=N)N)C(=O)N[C@@H](CCCCN)C(=O)N[C@@H](CCCNC(=N)N)C(=O)N2 [QS18] (H-QCFKVCFRKRCFTKCSRS-NH2; disulfide 2-15, 6-11; N-terminus and C-terminus assumed)
cell morphology by SEM and TEM (C. neoformans [1]): leaked cytoplasmic contents, as well as irregular cell morphology with shrunken cell surfaces
fungal burden (CFU) in lung, liver, kidney, spleen and blood (C. neoformans [2]): significant suppression of fungi dissemination to target organs
time to no fungal growth (C. neoformans BNCC225501; 5× the MIC, 1 × 10^5 CFU/mL, 37 °C, colony count): 120 min
time to kill fungi (C. neoformans BNCC225501; C. neoformans BNCC 225501, as worded in the discussion): within an hour
antifungal activity after chymotrypsin exposure (C. neoformans [3]; 2 h with chymotrypsin (250:1) at 37 °C): maintained its activity
antifungal efficacy after trypsin exposure (C. neoformans [3]; 2 h with trypsin (250:1) at 37 °C): reduced antifungal efficacy
plasma IL-1β, IL-6, TNF-α and MCP-1 [4]: dose-dependent reductions in these inflammatory markers
